Measured values taken from patent publication US20200216416A1, “QUINOLINE COMPOUNDS AS INHIBITORS OF TAM AND MET KINASES” (Array BioPharma Inc., priority 2019, published 2020).
Like-named read-outs stand apart in the source and are kept apart here.

Tests used:
[1] = molecular target: T1, MDR1 (P-gp) (Homo sapiens, UniProt P08183); test: MDR1 LLC-PK1 permeability assay; type: in vitro ADME; details: pig, MDR1 transfected LLC-PK1 cells; for Papp at 2 h, 1 μM: permeability coefficient (Papp)
T1 construct: expressed in transfected cells; host or cells: LLC-PK1
In short: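 MDR1-transfected LLC-PK1 monolayers dosed at 1 μM test article (1% organic) in A→B and B→A directions, in triplicate, for 2 h at 37 °C; lucifer yellow monitored monolayer integrity. Compound measured by LC-MS/MS against labetalol internal standard; Papp averaged per replicate, efflux ratio = Papp(B−A)/Papp(A−B).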

[2] = molecular target: T2, human MET kinase F1200I (Homo sapiens, UniProt P08581, F1200I); test: c-Met Enzyme Assay, F1200I mutant; type: binding; details: averaged IC50; F1200I 2 nM; 60-minute incubation at 22° C.
T2 construct: GST-tagged recombinant human MET kinase domain; purchased Signal Chem
In short: (§1)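 GST-tagged recombinant MET kinase domain was incubated with 50 nM Alexa-Fluor tracer 236, 2 nM Eu-anti-GST and compound in 25 mM HEPES pH 7.4, 10 mM MgCl2, 0.01% Triton X-100, 1 mM DTT, 2% DMSO for 60 min at 22 °C. TR-FRET ratio gave percent of control, fitted 4-parameter; IC50 at 50 POC.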

[3] = molecular target: T3, human MET kinase L1195V (Homo sapiens, UniProt P08581, L1195V); test: c-Met Enzyme Assay, L1195V mutant; type: binding; details: averaged IC50; L1195V 10 nM; 60-minute incubation at 22° C.
T3 construct: GST-tagged recombinant human MET kinase domain; purchased Signal Chem
In short: as §1

[4] = molecular target: T4, MET (wt) GST-tagged recombinant human MET kinase domain (Homo sapiens, UniProt P08581); test: c-Met Enzyme Assay, wild type (LanthaScreen Eu Kinase Binding); details: averaged IC50; MET (wt) 10 nM; 60-minute incubation at 22° C.; read-out: SigChem WT IC50
T4 construct: GST-tagged recombinant human MET kinase domain; purchased Signal Chem
In short: as §1

[5] = molecular target: T5, human MET kinase Y1230H (Homo sapiens, UniProt P08581, Y1230H); test: c-Met Enzyme Assay, Y1230H mutant; type: binding; details: averaged IC50; Y1230H 5 nM; 60-minute incubation at 22° C.; read-out: Y1230 H IC50
T5 construct: GST-tagged recombinant human MET kinase domain; purchased Signal Chem
In short: as §1

[6] = molecular target: T6, human MET kinase Y1230C (Homo sapiens, UniProt P08581, Y1230C); test: c-Met Enzyme Assay, Y1230C mutant; type: binding; details: averaged IC50; Y1230C 2 nM; 60-minute incubation at 22° C.; read-out: Y1230 C IC50
T6 construct: GST-tagged recombinant human MET kinase domain; purchased Signal Chem
In short: as §1

[7] = molecular target: T7, human MET kinase Y1230S (Homo sapiens, UniProt P08581, Y1230S); test: c-Met Enzyme Assay, Y1230S mutant; type: binding; details: averaged IC50; Y1230S 8 nM; 60-minute incubation at 22° C.; read-out: Y1230 S IC50
T7 construct: GST-tagged recombinant human MET kinase domain; purchased Signal Chem
In short: as §1

[8] = LLC-PK1, Papp(B−A)/Papp(A−B), test article 1 μM, 2 hours, 37° C., read-out: Efflux ratio
[9] = LLC-PK1, efflux ratio = Papp(B-A)/Papp(A-B), read-out: MDR1 Pe Ratio

T3 sequence (P08581 1078-1345 L1195V limits assumed): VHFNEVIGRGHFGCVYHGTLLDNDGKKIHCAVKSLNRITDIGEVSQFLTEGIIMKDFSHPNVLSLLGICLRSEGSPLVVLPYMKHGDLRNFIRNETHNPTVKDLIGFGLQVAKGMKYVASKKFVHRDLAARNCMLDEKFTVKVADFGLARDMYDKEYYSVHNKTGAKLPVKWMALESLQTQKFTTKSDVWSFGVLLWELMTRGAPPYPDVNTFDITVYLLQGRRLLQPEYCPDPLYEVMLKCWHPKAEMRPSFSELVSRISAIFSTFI
T2 sequence (P08581 1078-1345 F1200I limits assumed): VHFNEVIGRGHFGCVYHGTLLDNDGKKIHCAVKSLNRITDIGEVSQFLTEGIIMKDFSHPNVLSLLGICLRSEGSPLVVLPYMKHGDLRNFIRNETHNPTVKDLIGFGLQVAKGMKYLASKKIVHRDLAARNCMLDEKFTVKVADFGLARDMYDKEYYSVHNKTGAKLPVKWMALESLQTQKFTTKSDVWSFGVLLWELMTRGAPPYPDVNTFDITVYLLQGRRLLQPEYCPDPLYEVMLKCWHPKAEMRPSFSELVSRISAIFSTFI
T7 sequence (P08581 1078-1345 Y1230S): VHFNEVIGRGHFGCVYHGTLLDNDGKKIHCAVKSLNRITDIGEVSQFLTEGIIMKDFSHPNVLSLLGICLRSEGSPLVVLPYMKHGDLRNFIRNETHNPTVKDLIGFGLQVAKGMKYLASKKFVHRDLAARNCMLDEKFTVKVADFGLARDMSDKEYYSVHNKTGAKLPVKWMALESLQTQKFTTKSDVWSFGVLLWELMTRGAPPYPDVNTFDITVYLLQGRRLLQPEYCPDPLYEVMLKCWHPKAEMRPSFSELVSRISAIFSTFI
T6 sequence (P08581 1078-1345 Y1230C): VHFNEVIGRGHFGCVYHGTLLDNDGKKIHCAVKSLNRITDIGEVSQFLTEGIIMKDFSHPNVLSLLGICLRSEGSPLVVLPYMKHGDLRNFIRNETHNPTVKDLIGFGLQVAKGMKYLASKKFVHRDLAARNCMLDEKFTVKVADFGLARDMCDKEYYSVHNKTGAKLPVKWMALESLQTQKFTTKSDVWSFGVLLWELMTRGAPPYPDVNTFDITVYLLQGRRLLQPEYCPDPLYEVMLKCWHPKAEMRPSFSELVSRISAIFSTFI
T4 sequence (P08581 1078-1345 limits assumed): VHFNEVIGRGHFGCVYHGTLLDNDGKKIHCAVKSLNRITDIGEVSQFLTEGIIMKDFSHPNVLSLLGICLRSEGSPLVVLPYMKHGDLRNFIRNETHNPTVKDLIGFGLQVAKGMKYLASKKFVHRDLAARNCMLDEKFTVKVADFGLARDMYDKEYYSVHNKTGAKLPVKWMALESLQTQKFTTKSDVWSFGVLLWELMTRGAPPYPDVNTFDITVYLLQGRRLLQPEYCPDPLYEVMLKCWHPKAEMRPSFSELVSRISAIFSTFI
T5 sequence (P08581 1078-1345 Y1230H): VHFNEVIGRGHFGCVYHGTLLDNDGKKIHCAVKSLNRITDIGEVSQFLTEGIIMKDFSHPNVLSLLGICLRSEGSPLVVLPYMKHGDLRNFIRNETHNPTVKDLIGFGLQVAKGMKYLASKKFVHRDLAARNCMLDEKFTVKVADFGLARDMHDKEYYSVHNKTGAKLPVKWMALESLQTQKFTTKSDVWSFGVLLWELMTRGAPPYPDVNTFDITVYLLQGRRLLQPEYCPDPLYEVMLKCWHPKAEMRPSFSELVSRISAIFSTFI
T1 sequence (P08183 whole entry): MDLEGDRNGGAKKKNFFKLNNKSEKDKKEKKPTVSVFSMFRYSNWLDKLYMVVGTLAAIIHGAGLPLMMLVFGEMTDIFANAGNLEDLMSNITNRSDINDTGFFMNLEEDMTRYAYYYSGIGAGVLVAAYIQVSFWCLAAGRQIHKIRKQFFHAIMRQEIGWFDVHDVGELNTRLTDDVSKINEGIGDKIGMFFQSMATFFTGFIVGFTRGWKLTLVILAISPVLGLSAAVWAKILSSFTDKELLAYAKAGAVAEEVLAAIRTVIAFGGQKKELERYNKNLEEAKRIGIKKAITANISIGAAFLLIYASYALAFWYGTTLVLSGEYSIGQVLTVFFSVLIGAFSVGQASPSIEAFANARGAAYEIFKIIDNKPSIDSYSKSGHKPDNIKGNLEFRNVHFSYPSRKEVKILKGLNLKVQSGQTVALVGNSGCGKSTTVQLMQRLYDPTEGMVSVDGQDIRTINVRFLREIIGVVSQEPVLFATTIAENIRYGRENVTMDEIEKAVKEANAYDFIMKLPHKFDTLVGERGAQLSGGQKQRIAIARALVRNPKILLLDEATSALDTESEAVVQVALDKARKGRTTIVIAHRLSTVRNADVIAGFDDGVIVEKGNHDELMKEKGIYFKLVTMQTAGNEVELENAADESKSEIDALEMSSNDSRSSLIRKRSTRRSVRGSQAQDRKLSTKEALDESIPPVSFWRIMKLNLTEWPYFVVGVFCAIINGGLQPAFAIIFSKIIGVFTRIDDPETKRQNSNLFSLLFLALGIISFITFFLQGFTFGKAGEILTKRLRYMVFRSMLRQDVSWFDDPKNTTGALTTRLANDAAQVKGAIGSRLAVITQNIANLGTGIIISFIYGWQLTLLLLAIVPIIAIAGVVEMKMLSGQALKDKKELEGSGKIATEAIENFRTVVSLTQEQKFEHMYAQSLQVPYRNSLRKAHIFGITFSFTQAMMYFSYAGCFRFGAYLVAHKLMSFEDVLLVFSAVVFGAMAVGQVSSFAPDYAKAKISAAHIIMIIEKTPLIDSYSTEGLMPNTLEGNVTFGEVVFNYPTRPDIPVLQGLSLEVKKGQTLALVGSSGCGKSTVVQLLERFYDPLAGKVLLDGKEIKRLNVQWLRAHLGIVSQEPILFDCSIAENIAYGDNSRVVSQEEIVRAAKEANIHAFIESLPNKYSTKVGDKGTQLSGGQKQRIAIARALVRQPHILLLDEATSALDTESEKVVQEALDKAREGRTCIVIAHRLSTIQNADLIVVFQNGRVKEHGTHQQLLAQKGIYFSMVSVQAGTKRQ

| Compound | efflux ratio at 2 h, 1 μM [1, 8] | Papp at 2 h, 1 μM [1] [×10⁻⁶ cm/s] | IC50 [2] [nM] | IC50 [3] [nM] | IC50 [4] [nM] | IC50 [5] [nM] | IC50 [6] [nM] | IC50 [7] [nM] | efflux ratio at 2 h, 1 μM [1, 9] |
| --- | --- | --- | --- | --- | --- | --- | --- | --- | --- |
| COc1cc2nccc(Oc3ccc(NC(=O)c4cn(CCC(C)C)cc(-c5ccc(F)c(F)c5)c4=O)nc3)c2cc1OC [Example 35, 5-(3,4-difluorophenyl)-N-(5-((6,7-dimethoxyquinolin-4yl)oxy)pyridin-2-yl)-1-isopentyl-4-oxo-1,4-dihydropyridine-3-carboxamide] | 3.5 | < 1 | 11.5 | 34.3 | 13.8 | 18.3 | 10.5 | 8.5 |  |
| COc1cc2nccc(Oc3ccc(NC(=O)c4cn(CCN(C)C)cc(-c5ccc(F)c(F)c5)c4=O)nc3)c2cc1OC [Example 43, 5-(3,4-difluorophenyl)-N-(5-((6,7-dimethoxyquinolin-4-yl)oxy)pyridin-2-yl)-1-] |  |  | 2 | 14.2 | 1.4 | 2.9 | 1.4 | 1.1 | 13 |
| COc1cc2nccc(Oc3ccc(NC(=O)c4cn(CCC(C)C)cc(-c5ccc(F)cc5F)c4=O)nc3)c2cc1OC [Example 36, 5-(2,4-difluorophenyl)-N-(5-((6,7-dimethoxyquinolin-4yl)oxy)pyridin-2-yl)-1-isopentyl-4-oxo-1,4-dihydropyridine-3-carboxamide] |  | 1 | 3.2 | 14.4 | 2.4 | 4.4 | 2.8 | 2.3 | 4.3 |
| COc1cc2nccc(Oc3ccc(NC(=O)c4cn(CCN(C)C)cc(-c5ccc(F)cc5F)c4=O)nc3)c2cc1OC [Example 44, 5-(2,4-difluorophenyl)-N-(5-((6,7-dimethoxyquinolin-4-yl)oxy)pyridin-2-yl)-1-(2-(dimethylamino)ethyl)-4-oxo-1,4-dihydropyridine-3-carboxamide] |  | 2 | 4.2 | 18.9 | 2.2 | 2.7 | 1.7 | 2.1 | 11 |
| COc1cc2c(Oc3ccc(NC(=O)c4cn(C(C)C)cc(-c5ccc(F)cc5)c4=O)nc3)ccnc2cc1OCCCN1CCOCC1 [Example 56, 5-(4-fluorophenyl)-1-isopropyl-N-(5-((6-methoxy-7-(3-morpholinopropoxy)quinolin-4-yl)oxy)pyridin-2-yl)-4-oxo-1,4-dihydropyridine-3-carboxamide] |  | < 1 | 5 | 5.3 | 3.9 | 5.2 | 3.2 | 3 | 20 |
| CCn1cc(C(=O)Nc2ccc(Oc3ccnc4ccc(OC)cc34)cn2)c(=O)c(-c2ccc(F)cc2)c1 [Example 39, 1-ethyl-5-(4-fluorophenyl)-N-(5-((6-methoxyquinolin-4-yl)oxy)pyridin-2-yl)-4-oxo-1,4-dihydropyridine-3-carboxamide] | 3.5 | 7 | 31.6 | 508 | 29.4 | 209 | 47 | 55.3 | 0.9 |
| CNC(=O)Cn1cc(C(=O)Nc2ccc(Oc3ccnc4cc(OC)c(OC)cc34)cn2)c(=O)c(-c2ccc(F)cc2)c1 [Example 22] |  | 2 | 2.5 | 17.7 | 1.8 | 4.3 | 2 | 2.2 | 80 |
| COc1cc2nccc(Oc3ccc(NC(=O)c4cn(CC(C)C)cc(-c5ccc(F)cc5)c4=O)nc3)c2cc1OC [Example 11, N-(5-((6,7-dimethoxyquinolin-4-yl)oxy)pyridin-2-yl)-5-(4-fluorophenyl)-1-isobutyl-4-oxo-1,4-dihydropyridine-3-carboxamide] |  |  | 6.9 | 21.4 | 7.8 | 9.3 | 6.5 | 4.9 | 31 |
| COc1cc2nccc(Oc3ccc(NC(=O)c4cn(C(C)C)cc(-c5ccc(F)cc5OC)c4=O)nc3)c2cc1OC [Example 32, N-(5-((6,7-dimethoxyquinolin-4yl)oxy)pyridin-2-yl)-5-(4-fluoro-2-methoxyphenyl)-1-isopropyl-4-oxo-1,4-dihydropyridine-3-carboxamide] |  | 14 | 4.2 | 44.8 | 3 | 12.1 | 6.7 | 7.1 | 7.1 |
| COCCn1cc(C(=O)Nc2ccc(Oc3ccnc4cc(OC)c(OC)cc34)cn2)c(=O)c(-c2ccc(F)cc2)c1 [Example 7, N-(5((6,7-dimethoxyquinolin-4-yl)oxy)pyridin-2-yl)-5-(4-fluorophenyl)-1-(2-methoxyethyl)-4-oxo-1,4-dihydropyridine-3-carboxamide] |  | 11 | 3.7 | 7.3 | 3.1 | 5.4 | 2.9 | 2.1 | 8.2 |
| COc1cc2nccc(Oc3ccc(NC(=O)c4cn(C(C)C)cc(-c5ccc(Cl)cc5)c4=O)nc3)c2cc1OC [Example 5, 5-(4-chlorophenyl)-N-(5-((6,7-dimethoxyquinolin-4-yl)oxy)pyridin-2-yl)-1-isopropyl-4-oxo-1,4-dihydropyridine-3-carboxamide] | 3.5 | 5 | 5.7 | 9.8 | 6.4 | 16.6 | 8.1 | 5.4 | 2.6 |
| COc1cc2nccc(Oc3ccc(NC(=O)c4cn(C(C)C)cc(-c5ccc(F)c(Cl)c5)c4=O)nc3)c2cc1OC [Example 21, 5-(3-chloro-4-fluorophenyl)-N-(5-((6,7-dimethoxyquinolin-4-yl)oxy)pyridin-2-yl)-1-isopropyl-4-oxo-1,4-dihydropyridine-3-carboxamide] | 3.5 | 1.2 | 16.2 | 77.7 | 13.5 | 51.3 | 20.4 | 29.2 | 1.3 |
| COc1cc2nccc(Oc3ccc(NC(=O)c4cn(C(C)C)c(C)c(-c5ccc(F)c(F)c5)c4=O)nc3)c2cc1OC [Example 28, 5-(3,4-difluorophenyl)-N-(5-((6,7-dimethoxyquinolin-4yl)oxy)pyridin-2-yl)-1-isopropyl-6-methyl-4-oxo-1,4-dihydropyridine-3-carboxamide] | 3.5 | 15 | 2.4 | 4 | 2 | 7.8 | 1.7 | 1.8 | 2.8 |
